Experiments:
STAT3 [1] = test: Immunoblot of pSTAT3 with pharmacologic inhibitors, mouse CD8^+ T cells; format: cell-based; settings: PP2 (1 nM); 1 h
Procedure: (§1) FIG. 23: Elevated STAT3 phosphorylation resulting from CD80 binding-mediated CD28 activation via the tyrosine kinase Lck/JAK/STAT3 signaling pathway. The effect of CD28 activation and treatment with pharmacologic inhibitors on the expression of pSTAT, total STAT, and b-actin according to immunoblot assay. Mouse and human CD8^+ T cells were stimulated with anti-CD3 microbeads and treated with ctrl Fc or CD80-Fc in the presence or absence of the pharmacologic inhibitor JSI-124 […], PP2 (1 nM), or AG-490 ([…]) for 24 h. Vehicle control is included. The intensity quantification shown ([…]/intensity of β-actin) represents the mean intensity from three repeated experiments.
(§2) Because NKG2D expression on NK cells is regulated by pSTAT3, the next question was whether pSTAT3 expression is induced in CD8^+ T cells by activation of CD28. To address this question, the pSTAT3 expression was measured in both mouse and human CD8^+ T cells after incubation with control IgG or CD80-Fc for 15 and 30 min, as well as 1 and 2 h via intracellular flow cytometric staining. […] Given that CD28 activation in CD8^+ T cells results in STAT3 phosphorylation, it was sought to determine how CD28 activates JAK/STAT3 signaling in CD8^+ T cells. In these cells, the co-stimulatory receptor CD28 strengthens TCR signaling via sustained activation of the tyrosine kinase Lck which in turn recruits and activates ZAP70. […] Thus a pharmacologic model was established to determine whether Lck/ZAP70, as an upstream kinase cascade, activates STAT3 in CD8^+ T cells. Mouse and human CD8^+ T cells were enriched (FIG. 29) and stimulated with anti-CD3 microbeads and incubated with control IgG or CD80-Fc in the presence or absence of the pharmacologic inhibitor PP2, AG-490, or JSI-124 for 1 h. PP2 was employed because it is a specific Src-family kinase inhibitor sensitive to blockade of Lck activation. Also, AG-490 can inhibit activation of JAK/STAT3 signaling. […] To validate the crucial role of pSTAT3, the expression of pSTAT1 and pSTAT5 was also assessed. […]

STAT3 [2] = test: Immunoblot of pSTAT3 with pharmacologic inhibitors, human CD8^+ T cells; format: cell-based; settings: PP2 (1 nM); 1 h
Procedure: as §1, §2

Lck/JAK/STAT3 signaling [3] = test: NKG2D expression with CD80-Fc plus inhibitors of STAT3 activation, mouse CD8^+ T cells; format: cell-based; settings: 24 h
Procedure: (§3) FIGS. 24A-24B: Blockade of Lck/JAK/STAT3 signaling abolishes CD28 activation-mediated induction of NKG2D expression on mouse and human CD8^+ T cells. (A, B) Mouse (A) and human (B) CD8^+ T cells were stimulated with anti-CD3 microbeads and treated with control Fc or CD80-FC in the presence or absence of the pharmacologic inhibitor JSI-124, PP2, or AG-490 for 24 h. The CD80+ vehicle has the highest expression of NKG2D. NKG2D expression on the surface of CD8^+ T cells was measured using flow cytometry. The bar graphs show the median (±SEM) MFI of NKG2D (n=3). The data are representative of three repeated experiments.
(§4) If NKG2D expression is induced by CD80-Fc-based treatment via pSTAT3, inhibition of any upstream activators of STAT3 should abrogate NKG2D induction. A time course study was performed to assess the toxicity of the pharmacologic inhibitors to mouse and human CD8^+ T cells. […] Therefore, to test the hypothesis, mouse and human CD8^+ T cells were enriched and treated with control Fc, CD80-Fc plus control vehicle, or CD80-Fc plus inhibitors of STAT3 activation, including PP2, AG490, and JSI-124, for 24 h.

Lck/JAK/STAT3 signaling [4] = test: NKG2D expression with CD80-Fc plus inhibitors of STAT3 activation, human CD8^+ T cells; format: cell-based; settings: 24 h
Procedure: as §3, §4

mouse CD8^+ T cells = test: CD8^+ T cell viability after JSI-124 (7-AAD), mouse; format: cell-based; settings: 48 h, JSI-124 0.1 μM, versus vehicle control
Procedure: (§5) FIGS. 30A-30B: CD8^+ T cell viability after JSI-124 treatment. Freshly enriched mouse (A) and human (B) CD8^+ T cells were treated with vehicle control or JSI-124 (0.1 μM) for 1, 2, 3, and 4 days. Cell viability was assessed after 7-AAD staining via flow cytometry.
as §4

human CD8^+ T cells = test: CD8^+ T cell viability after JSI-124 (7-AAD), human; format: cell-based; settings: 48 h, JSI-124 0.1 μM, versus vehicle control
Procedure: as §5, §4

LLC cells = test: Cytotoxic T-lymphocyte assay against CFSE-labeled LLC cells; format: cell-based, mouse; settings: E:T 5:1, 10:1, 25:1, 5 h
Procedure: FIGS. 25A-25D: Augmentation of CD8^+ T-cell antitumor cytolytic activity by treatment with CD80-Fc. (A-C) Induction of antitumor cytolytic activity by mouse CD8^+ T cells after exposure to Rae-1^+ LLC cells. Splenocytes were collected from LLC-bearing mice on day 14 after tumor-cell inoculation. CD8^+ T cells were isolated from splenocytes and treated with control Fc or CD80-Fc in the presence or absence of an anti-NKG2D antibody or JSI-124 for 24 h. (A) CD8^+ T cells were co-incubated with CFSE-labeled LLC cells at a ratio of 25:1 (E:T) for 5 h. The cell culture medium was subjected to ELISA analysis of perforin. The bar graphs show the median (±SEM) normalized concentration of perforin (n=3). (B) Flow cytometry analysis of NKG2D ligand Rae-1 expression on LLC tumor cells. (C) CD8^+ T cells were co-incubated with CFSE-labeled LLC cells at ratios of 5:1, 10:1, and 25:1 (E:T) for 5 h. […] Survival of the target cells was measured as the percentage of normalized target cells that remained after incubation with CD8^+ T cells. […]
Because increased perforin expression by immune cells often indicates enhanced antitumor cytolytic activity, the cytotoxic T-lymphocyte activity of mouse CD8^+ T cells was measured after CD80-Fc-based treatment. […] The survival of target cells was determined as the percentage of normalized target cells that remained after incubation with CD8^+ T cells. […]

[5] = Degranulation assay (CD107a), human CD8^+ T cells exposed to K562 cells; format: cell-based; settings: 24 h treatment
Procedure: (§6) FIGS. 25A-25D: Augmentation of CD8^+ T-cell antitumor cytolytic activity by treatment with CD80-Fc. (A-C) Induction of antitumor cytolytic activity by mouse CD8^+ T cells after exposure to Rae-1^+ LLC cells. Splenocytes were collected from LLC-bearing mice on day 14 after tumor-cell inoculation. CD8^+ T cells were isolated from splenocytes and treated with control Fc or CD80-Fc in the presence or absence of an anti-NKG2D antibody or JSI-124 for 24 h. (A) CD8^+ T cells were co-incubated with CFSE-labeled LLC cells at a ratio of 25:1 (E:T) for 5 h. The cell culture medium was subjected to ELISA analysis of perforin. The bar graphs show the median (±SEM) normalized concentration of perforin (n=3). (B) Flow cytometry analysis of NKG2D ligand Rae-1 expression on LLC tumor cells. (C) CD8^+ T cells were co-incubated with CFSE-labeled LLC cells at ratios of 5:1, 10:1, and 25:1 (E:T) for 5 h. After incubation, the cells were stained with PI (1 mg/mL). […] Survival of the target cells was measured as the percentage of normalized target cells that remained after incubation with CD8^+ T cells. […]
(§7) In a similar manner, the cytolytic activity of human CD8^+ T cells was assessed in terms of their degranulation upon CD28 activation. The ability of CD8^+ T cells to undergo degranulation was evaluated in response to exposure to target tumor cells by the induction of cell surface marker CD107a. […]

K562 cells = test: as above; format: cell-based; settings: after exposure to target cells, ratio 1:1, 4 h
Procedure: as §6, §7

Which results are given for `N#C/C(=C/c1ccc(O)c(O)c1)C(=O)NCc1ccccc1` [AG-490]?
phosphorylation of STAT3 in response to CD80-Fc (STAT3 [1]): completed abolished; phosphorylation of STAT3 in response to CD80-Fc (STAT3 [2]): completed abolished; NKG2D expression on CD8^+ T cells (Lck/JAK/STAT3 signaling [3]): dramatic decreases; NKG2D expression on CD8^+ T cells (Lck/JAK/STAT3 signaling [4]): dramatic decreases

Which results are given for `CC(C)(O)/C=C/C(=O)[C@](C)(O)[C@H]1[C@H](O)C[C@@]2(C)[C@@H]3CC=C4[C@@H](C=C(O)C(=O)C4(C)C)[C@]3(C)C(=O)C[C@]12C` [JSI-124]?
phosphorylation of STAT3 in response to CD80-Fc (STAT3 [1]): completed abolished; phosphorylation of STAT3 in response to CD80-Fc (STAT3 [2]): completed abolished; cell viability (mouse CD8^+ T cells): markedly decreased; cell viability (human CD8^+ T cells): markedly decreased; NKG2D expression on CD8^+ T cells (Lck/JAK/STAT3 signaling [3]): dramatic decreases; NKG2D expression on CD8^+ T cells (Lck/JAK/STAT3 signaling [4]): dramatic decreases; cytolytic activity against LLC cells (LLC cells): impaired the cytolytic activity; NKG2D expression [5]: abolished NKG2D expression; degranulation (CD107a) (K562 cells): reduced degranulation

With `CC(C)(C)n1nc(-c2ccc(Cl)cc2)c2c(N)ncnc21` [PP2] as the molecule, how does the “phosphorylation of STAT3 in response to CD80-Fc” value (STAT3 [1]) read?
Its value is “completed abolished”.

And the “phosphorylation of STAT3 in response to CD80-Fc” value (STAT3 [2])?
The value was “completed abolished”.

And the “NKG2D expression on CD8^+ T cells” value (Lck/JAK/STAT3 signaling [3])?
Its value is “dramatic decreases”.

And the “NKG2D expression on CD8^+ T cells” value (Lck/JAK/STAT3 signaling [4])?
Its value is “dramatic decreases”.

Reference: patent publication US11421010B2, “T cells expressing membrane-anchored IL-12 for the treatment of cancer” (Board of Regents, The University of Texas System, priority 2016, dated 2022)
